Results as given in ChEMBL document CHEMBL1141415, “Design, synthesis, and crystal structure of hydroxyethyl secondary amine-based peptidomimetic inhibitors of human beta-secretase” (J Med Chem, 2007).

How the values were obtained:
Beta-secretase (BACE) [1] = biological target: T1, Beta-secretase (BACE) (Homo sapiens, UniProt Q9Y5Z0+P56817); test: Inhibition of beta amyloid production in human HEK293 cells; type: functional, cell-based
Beta-secretase 1 = Beta-secretase 1 (Homo sapiens, UniProt P56817); test: Inhibition of human BACE1 by MBPC125Swe assay; type: cell-based
Beta-secretase 1, sequence (P56817 whole entry): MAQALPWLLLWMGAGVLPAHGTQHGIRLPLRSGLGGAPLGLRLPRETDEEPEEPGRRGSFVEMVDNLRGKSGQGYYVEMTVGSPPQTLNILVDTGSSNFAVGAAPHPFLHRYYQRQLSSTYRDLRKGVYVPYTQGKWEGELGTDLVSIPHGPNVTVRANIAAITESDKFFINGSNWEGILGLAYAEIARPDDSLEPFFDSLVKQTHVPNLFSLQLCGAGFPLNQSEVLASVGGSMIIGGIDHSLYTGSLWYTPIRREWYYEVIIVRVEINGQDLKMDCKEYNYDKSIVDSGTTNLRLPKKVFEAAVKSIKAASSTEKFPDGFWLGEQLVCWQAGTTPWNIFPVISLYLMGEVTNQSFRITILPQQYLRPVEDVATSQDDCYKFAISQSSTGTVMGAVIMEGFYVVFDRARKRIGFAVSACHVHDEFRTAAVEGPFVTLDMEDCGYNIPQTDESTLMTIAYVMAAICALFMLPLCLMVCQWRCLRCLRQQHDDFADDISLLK

Beta-secretase (BACE) [2] = biological target: T1, Beta-secretase (BACE); test: Ratio of EC50 for beta amyloid to IC50 for BACE1; type: functional

T1 sequence (P56817 whole entry, looked up): as the sequence (P56817 whole entry) above
T1 sequence (Q9Y5Z0 whole entry, looked up): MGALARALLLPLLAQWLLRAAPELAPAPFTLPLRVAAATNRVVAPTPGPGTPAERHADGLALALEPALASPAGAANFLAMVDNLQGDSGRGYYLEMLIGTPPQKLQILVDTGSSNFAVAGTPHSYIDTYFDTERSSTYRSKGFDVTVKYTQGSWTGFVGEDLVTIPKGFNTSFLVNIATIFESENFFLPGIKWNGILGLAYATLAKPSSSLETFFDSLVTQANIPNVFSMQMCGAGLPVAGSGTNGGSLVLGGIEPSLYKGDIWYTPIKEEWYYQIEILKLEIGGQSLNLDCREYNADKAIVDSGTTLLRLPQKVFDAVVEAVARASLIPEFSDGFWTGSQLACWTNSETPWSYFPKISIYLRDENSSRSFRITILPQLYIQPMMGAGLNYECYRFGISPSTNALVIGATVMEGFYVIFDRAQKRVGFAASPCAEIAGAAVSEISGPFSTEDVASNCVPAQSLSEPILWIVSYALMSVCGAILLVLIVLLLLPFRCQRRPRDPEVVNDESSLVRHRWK

CCCN(CCC)C(=O)c1cc(C)cc(C(=O)N[C@@H](Cc2cc(F)cc(F)c2)[C@H](O)CN[C@@H](C)C(=O)NCC(C)C)c1
EC50 (Beta-secretase (BACE) [1]): 80 nM | IC50 (Beta-secretase 1): 70 nM

CCCN(CCC)C(=O)c1cc(C)cc(C(=O)N[C@@H](Cc2cc(F)cc(F)c2)[C@H](O)CNC(C)(C)C(=O)NCC(C)C)c1
EC50 (Beta-secretase (BACE) [1]): 230 nM

CCCN(CCC)C(=O)c1cccc(C(=O)N[C@@H](Cc2cc(F)cc(F)c2)[C@H](O)CN[C@H](C)C(=O)NCC(C)C)c1
EC50 (Beta-secretase (BACE) [1]): 600 nM | IC50 (Beta-secretase 1): 500 nM

CCCN(CCC)C(=O)c1cc(C)cc(C(=O)N[C@@H](Cc2cc(F)cc(F)c2)[C@H](O)CNCc2ccccc2)c1
Ratio (Beta-secretase (BACE) [2]): 0.3 | EC50 (Beta-secretase (BACE) [1]): 40 nM | IC50 (Beta-secretase 1): 130 nM

CCCN(CCC)C(=O)c1cccc(C(=O)N[C@@H](Cc2cc(F)cc(F)c2)[C@H](O)CN[C@@H](C)C(=O)NCC(C)C)c1
Ratio (Beta-secretase (BACE) [2]): 1 | EC50 (Beta-secretase (BACE) [1]): 230 nM | IC50 (Beta-secretase 1): 130 nM
